# How the values were obtained:
# GABA receptor [1] = conditions: physiological levels of PROG, in vivo; cited from earlier work
# [2] = Physiological variables (blood pH, pCO2, pO2, blood pressure) before and after injection, rat MCAO; type: in vivo, Male Wistar rats; conditions: for Mean Blood Pressure / pCO2 / pH / pO2: n=12, mean ± S.E.M.
# GABA receptor [3] = conditions: neurons; cited from earlier work
# global cerebral ischemia = conditions: 7-day pretreatment; cited from earlier work
# [4] = system: middle cerebral artery occlusion rats; conditions: one hour prior to MCAO; early stages of ischemia; cited from earlier work
# [5] = system: middle cerebral artery occlusion (MCAO) rats; experiment: Neurological deficit score after MCAO (Zea Longa scale 0-4), Example 1; conditions: for Neurologic Score: scale 0-4, mean ± S.E.M., DMSO group 1.8 ± 0.1
# Procedure: (§1) Briefly, the right common carotid artery, external carotid artery (ECA) and internal carotid artery (ICA) were exposed. A length of 4-0 monofilament nylon suture (18.5-19.5 mm), determined by the animal weight, with its tip rounded by heating near a flame, was advanced from the ECA into the lumen of the ICA until it blocked the origin of the MCA. Two hours after MCAO, animals were reanaesthetized with halothane and reperfusion was performed by withdrawal of the suture until the tip cleared the lumen of the ICA.
# (§2) Four randomly assigned populations of animals were tested. Group 1 (n=12): water soluble PROG (PROG with balance of 2-hydroxypropyl-β-cyclodextrin) (Sigma Chemical Co., St Louis, Mo.) dissolved in saline (4.0 mg/ml) was injected intraperitoneally (4.0 mg/kg) 30 minutes before MCAO. The remaining injections (all 4.0 mg/kg) were given at 6 and 24 hours after MCAO, respectively. Group 2 (n =12): the experimental protocol was identical to that in Group 1, except that PROG (4-pregnene-3,20-dione) (Sigma Chemical Co., St Louis, Mo.) dissolved in dimethyl sulfoxide (DMSO; Sigma Chemical Co., St Louis, Mo.) (8.0 mg/ml), instead of water soluble PROG, was administered. Group 3 (n=12): the experimental protocol was identical to that in group 2, except that the initial injection was delayed to the onset of reperfusion (2 hours after MCAO). Group 4 (n=12): the experimental protocol was the same as that in Group 2, except that the same volume of DMSO without PROG (0.5 ml/kg) as in Group 2 was administered.
# (§3) All animals were weighed before surgery for MCAO and at 24 and 48 hours after MCAO. Neurological abnormalities were also evaluated 24 and 48 hours after MCAO using the scale (0-4) described by Z. Longa et al., Stroke, 20, 84 (1989). Rats were held gently by the tail, suspended one meter above the floor, and observed for forelimb flexion. […] Rats that consistently flexed the left forelimb (contralateral to the injured hemisphere) accompanying flexion of the wrist toward left without any other abnormality were graded 1. Rats that were allowed to move about freely and circled toward the paretic side consistently were graded 2. Rats that fell down to the left losing the ability to walk were graded 3.
# (§4) For parametric variables, a one way ANOVA was applied to determine the statistical significance of differences among groups. If a significant difference was detected, then two sample t-tests with Bonferroni correction were performed to evaluate differences between control and PROG treated groups. Paired t-tests were performed on physiological parameters before and after administration of PROG and DMSO within each group. Values presented in this study are mean ±S.E.M. A probability value less than 0.05 was considered significant.
# in vivo = conditions: rat, ip, 4 mg/kg, plasma level of PROG
# [6] = system: middle cerebral artery occlusion (MCAO) rats; experiment: Infarct volume after MCAO (TTC staining), Example 1; type: in vivo, Male Wistar rats; conditions: for % Infarct volume (to the contralateral hemisphere): 48 h post MCAO, n=12, mean ± S.E.M., DMSO group 35.1 ± 4.5; for decrease of percent infarct volume compared with DMSO treated control group: 4.0 mg/kg i.p.
# [7] = circulating PROG; cited from earlier work
# [8] = Body weight loss after MCAO, Example 1; conditions: for Body weight loss: mean ± S.E.M.
# Procedure: as §1, §2, §3, §4
# [9] = system: central nervous system (CNS); conditions: cited from earlier work
# cerebral contusion = conditions: one hour after the cerebral trauma; cited from earlier work
# stroke patients = conditions: cited from earlier work
# [10] = 20 min post-injection, 4.0 mg/kg i.p. 30 min before MCAO
# [11] = 20 min post-injection, 4.0 mg/kg i.p. 2 h after MCAO
# [12] = pre-injection, group 4.0 mg/kg i.p. 30 min before MCAO
# [13] = pre-injection, group 4.0 mg/kg i.p. 2 h after MCAO
# [14] = both groups of regular PROG treated animals (pre- and post-MCAO), 4.0 mg/kg i.p.
smiles,measurement,setting,value
"CC(=O)[C@H]1CC[C@H]2[C@@H]3CCC4=CC(=O)CC[C@]4(C)[C@H]3CC[C@]12C [PROG, 4-pregnene-3,20-dione]",GABA-mediated inhibition of neuronal activity,GABA receptor [1],enhance GABA-mediated inhibition of neuronal activity
same,Mean Blood Pressure,[2]; [10],95 ± 2 mm Hg
same,pCO2,[2]; [10],39 ± 2 mm Hg
same,pH,[2]; [10],7.43 ± 0.02
same,pO2,[2]; [10],135 ± 5 mm Hg
same,Mean Blood Pressure,[2]; [11],103 ± 3 mm Hg
same,pCO2,[2]; [11],36 ± 1 mm Hg
same,pH,[2]; [11],7.44 ± 0.01
same,pO2,[2]; [11],134 ± 3 mm Hg
same,physiological variables before and after injection,"[2]; before vs 20 min after initial treatment, 4.0 mg/kg i.p.",no significant difference
same,Mean Blood Pressure,[2]; [12],94 ± 3 mm Hg
same,pCO2,[2]; [12],41 ± 1 mm Hg
same,pH,[2]; [12],7.44 ± 0.01
same,pO2,[2]; [12],134 ± 4 mm Hg
same,Mean Blood Pressure,[2]; [13],107 ± 3 mm Hg
same,pCO2,[2]; [13],36 ± 1 mm Hg
same,pH,[2]; [13],7.46 ± 0
same,pO2,[2]; [13],133 ± 4 mm Hg
same,GABA-evoked Cl currents,GABA receptor [3],potentiating GABA-evoked Cl currents
same,neuroprotective activity following global cerebral ischemia,global cerebral ischemia,exhibited neuroprotective activity following global cerebral ischemia only after a 7-day pretreatment regimen
same,brain edema,[4],reduce brain edema in the early stages of ischemia
same,Neurologic Score,"[5]; 24 h after MCAO, 4.0 mg/kg i.p. first dose 30 min before MCAO",1.4 ± 0.1 score
same,Neurologic Score,"[5]; 24 h after MCAO, 4.0 mg/kg i.p. first dose 2 h after MCAO",1.4 ± 0.1 score
same,Neurologic Score,"[5]; 48 h after MCAO, 4.0 mg/kg i.p. first dose 30 min before MCAO",1.4 ± 0.1 score
same,Neurologic Score,"[5]; 48 h after MCAO, 4.0 mg/kg i.p. first dose 2 h after MCAO",1.4 ± 0.1 score
same,neurological function compared with DMSO group,[5]; [14],improved neurological function
same,concentration at 4 h,in vivo,41.9 ng/mL
same,% Infarct volume (to the contralateral hemisphere),"[6]; 4.0 mg/kg i.p. 30 min before, 6 and 24 h after MCAO",21.5 ± 2.9%
same,% Infarct volume (to the contralateral hemisphere),[6]; 4.0 mg/kg i.p. first dose 2 h after MCAO,23.1 ± 2.3%
same,decrease of percent infarct volume compared with DMSO treated control group,"[6]; delayed treated (2 h after MCAO), P=0.027",34%
same,decrease of percent infarct volume compared with DMSO treated control group,"[6]; first dose 30 min before MCAO, DMSO dissolved PROG P=0.018, water soluble PROG P=0.290 (not significant)",39%
same,effectiveness 2 hours after onset of MCAO versus prior to onset,[6]; 2 h after onset vs prior to onset of MCAO,as effective
same,passage through the blood-brain barrier,[7],easily passes through the blood-brain barrier
same,Body weight loss,"[8]; 24 h after MCAO, 4.0 mg/kg i.p. first dose 30 min before MCAO, DMSO group 40.4 ± 3.4",31.1 ± 2.6 grams
same,Body weight loss,"[8]; 24 h after MCAO, 4.0 mg/kg i.p. first dose 2 h after MCAO, DMSO group 40.4 ± 3.4",33.8 ± 1.9 grams
same,Body weight loss,"[8]; 48 h after MCAO, 4.0 mg/kg i.p. first dose 30 min before MCAO, DMSO group 19.7 ± 2.9",8.8 ± 2.2 grams
same,Body weight loss,"[8]; 48 h after MCAO, 4.0 mg/kg i.p. first dose 2 h after MCAO, DMSO group 19.7 ± 2.9",10.0 ± 3.1 grams
same,body weight loss compared with DMSO group,[8]; [14],reduced body weight loss
same,CNS actions,[9]; PROG and its related metabolites,"CNS depressants and exert anesthetic, anticonvulsant and anxiolytic actions"
same,anticonvulsant activity,[9]; in vivo,possesses anticonvulsant activity
same,edema resulting from cerebral contusion,cerebral contusion,reduced edema
same,absorption by the intraperitoneal route,"4.0 mg/kg i.p., DMSO dissolved, n=2",absorbed rapidly
same,plasma level of PROG,"rat, in vivo, ip, 4 mg/kg, 4 h",70.7 ng/mL
C[C@@H]1C[C@H]2[C@@H]3CCC4=CC(=O)C=C[C@]4(C)[C@@]3(F)[C@@H](O)C[C@]2(C)[C@@]1(O)C(=O)CO [dexamethasone],"outcome, steroid vs non-steroid treated patients",stroke patients,no significant difference in outcome
C[C@H]1C[C@@H]2[C@H]([C@@H](O)C[C@@]3(C)[C@H]2CC[C@]3(O)C(=O)CO)[C@@]2(C)C=CC(=O)C=C12 [methylprednisolone],"outcome, steroid vs non-steroid treated patients",stroke patients,no significant difference in outcome
